Results as given in ChEMBL document CHEMBL5126650, “Novel IRAK Degraders for Treating Cancer” (ACS Med Chem Lett, 2022).

Target: Protein cereblon/Interleukin-1 receptor-associated kinase 4 (Homo sapiens, UniProt Q9NWZ3+Q96SW2)
Assay: Protac activity at E3 ubiquitin ligase/IRAK4 in human OCILY10 cells assessed as degradation of IRAK4 incubated for 4 hr by MSD assay
Assay type: cell-based

Protein cereblon/Interleukin-1 receptor-associated kinase 4, sequence (Q9NWZ3 whole entry): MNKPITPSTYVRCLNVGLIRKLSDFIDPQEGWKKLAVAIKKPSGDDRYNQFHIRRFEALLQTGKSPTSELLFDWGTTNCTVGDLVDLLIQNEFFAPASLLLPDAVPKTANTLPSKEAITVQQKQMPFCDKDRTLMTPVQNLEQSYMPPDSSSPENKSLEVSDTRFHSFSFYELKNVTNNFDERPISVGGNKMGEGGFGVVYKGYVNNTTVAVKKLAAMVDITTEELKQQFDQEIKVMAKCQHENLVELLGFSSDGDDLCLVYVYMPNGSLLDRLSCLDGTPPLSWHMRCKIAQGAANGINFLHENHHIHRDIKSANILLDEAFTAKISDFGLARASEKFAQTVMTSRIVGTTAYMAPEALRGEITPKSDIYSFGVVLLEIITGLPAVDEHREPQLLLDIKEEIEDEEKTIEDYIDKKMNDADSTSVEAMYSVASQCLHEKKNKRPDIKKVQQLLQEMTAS
Protein cereblon/Interleukin-1 receptor-associated kinase 4, sequence (Q96SW2 whole entry): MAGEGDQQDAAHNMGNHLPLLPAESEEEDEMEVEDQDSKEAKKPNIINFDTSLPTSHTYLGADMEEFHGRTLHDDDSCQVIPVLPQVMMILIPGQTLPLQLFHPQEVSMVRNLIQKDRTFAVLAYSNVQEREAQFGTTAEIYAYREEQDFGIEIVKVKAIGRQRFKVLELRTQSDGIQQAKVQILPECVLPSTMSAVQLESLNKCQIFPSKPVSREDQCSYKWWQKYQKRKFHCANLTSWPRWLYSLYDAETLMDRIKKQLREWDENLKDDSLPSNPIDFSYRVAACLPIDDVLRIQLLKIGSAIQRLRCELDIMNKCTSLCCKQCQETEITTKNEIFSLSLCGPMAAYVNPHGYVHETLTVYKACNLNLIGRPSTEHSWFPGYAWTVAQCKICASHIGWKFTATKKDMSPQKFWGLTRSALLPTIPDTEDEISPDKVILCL

Compound	DC50 [nM]
CN(C[C@H]1CC[C@H](n2cc3cc(NC(=O)c4cccc(C(F)(F)F)n4)ccc3n2)CC1)C1CCN(c2ccn3c(N4CCC(=O)NC4=O)cnc3c2)CC1	< 10
COc1cc2nn([C@H]3CC[C@H](CN(C)C4CCN(c5ccc6c(N7CCC(=O)NC7=O)cncc6c5)CC4)CC3)cc2cc1NC(=O)c1cccc(C(F)(F)F)n1	< 10
CN(C[C@H]1CC[C@H](n2cc3cc(NC(=O)c4cccc(C(F)(F)F)n4)c(C(C)(C)O)cc3n2)CC1)C1CCN(c2ccc3c(N4CCC(=O)NC4=O)cncc3c2)CC1	< 10
CN(C[C@H]1CC[C@H](n2cc3cc(NC(=O)c4cccc(C(F)(F)F)n4)c(C(C)(C)O)cc3n2)CC1)C1CCN(c2ccn3c(N4CCC(=O)NC4=O)cnc3c2)CC1	< 10
CN(C[C@H]1CC[C@H](n2cc3cc(NC(=O)c4cccc(C(F)(F)F)n4)ncc3n2)CC1)C1CCN(c2ccn3c(N4CCC(=O)NC4=O)cnc3c2)CC1	< 10
COc1cc2nc([C@H]3CC[C@H](CN4CCC(c5ccn6c(N7CCC(=O)NC7=O)cnc6c5)CC4)CC3)sc2cc1NC(=O)c1cccc(C(F)(F)F)n1	< 10
